Reference: EPA's ToxRefDB 2

Assays:
primate [1] = conditions: Sub-acute repeat dose toxicity, Oral, Gavage/Intubation, dose end: 23 day, group: systemic
rat [2] = conditions: Sub-acute repeat dose toxicity, sprague dawley, Oral, Gavage/Intubation, dose end: 29 day, group: systemic
primate [3] = conditions: Sub-acute repeat dose toxicity; Oral; Gavage/Intubation; dose end: 34 day; group: systemic; systemic / pathology microscopic / intestine small / erosion + systemic / pathology microscopic / intestine small / hemorrhage + systemic / …
rat [4] = conditions: Sub-acute repeat dose toxicity, sprague dawley, Oral, Gavage/Intubation, dose end: 14 day, group: systemic
rat [5] = conditions: Carcinogenicity, fischer, Oral, Feed, dose end: 2 year, group: systemic
rat [6] = conditions: Combined chronic toxicity/carcinogenicity, fischer, Oral, Gavage/Intubation, dose end: 2 year, group: systemic
mouse [7] = conditions: Combined chronic toxicity/carcinogenicity, b6c3f1, Oral, Gavage/Intubation, dose end: 2 year, group: systemic
rat [8] = conditions: Subchronic oral toxicity in rodents, fischer, Gavage/Intubation, dose end: 13 week, group: systemic
mouse [9] = conditions: Subchronic oral toxicity in rodents, b6c3f1, Gavage/Intubation, dose end: 13 week, group: systemic, systemic / pathology microscopic / kidney / vacuolization cytoplasmic + systemic / pathology microscopic / liver / vacuolization cytoplasmic…
rat [10] = conditions: Multigenerational reproductive toxicity study, sprague dawley, Oral, Gavage/Intubation, dose end: 2 generation
mouse [11] = conditions: Subchronic oral toxicity in rodents, b6c3f1, Gavage/Intubation, dose end: 14 week, group: systemic
rat [12] = conditions: Carcinogenicity, fischer, Oral, Gavage/Intubation, dose end: 105 week, group: systemic
rat [13] = conditions: Prenatal developmental toxicity study, sprague dawley, Oral, Gavage/Intubation, dose end: 19 GD
rat [14] = conditions: Subchronic oral toxicity in rodents, fischer, Gavage/Intubation, dose end: 14 week, group: systemic
mouse [15] = conditions: Carcinogenicity; b6c3f1; Oral; Gavage/Intubation; dose end: 105 week; group: systemic; systemic / pathology microscopic / nose / dilatation + systemic / pathology microscopic / nose / hyperplasia + systemic / pathology …
[16] = systemic / clinical chemistry / alanine aminotransferase (alt/sgpt) / alanine aminotransferase (alt/sgpt) + systemic / clinical chemistry / …
[17] = systemic / in life observation / clinical signs / emesis
[18] = systemic / clinical chemistry / [other] / [other] + systemic / clinical chemistry / protein / protein + systemic / hematology / erythrocyte…
[19] = systemic / hematology / platelet / platelet + systemic / in life observation / body weight / body weight gain + systemic / in life …
[20] = systemic / in life observation / body weight / body weight gain
[21] = systemic / in life observation / body weight / body weight + systemic / pathology microscopic / urinary bladder / hyperplasia
[22] = systemic / in life observation / body weight / body weight + systemic / pathology microscopic / urinary bladder / hyperplasia + systemic / …
[23] = systemic / in life observation / body weight / body weight + systemic / in life observation / body weight / body weight gain
[24] = systemic / in life observation / body weight / body weight + systemic / pathology microscopic / kidney / vacuolization cytoplasmic + …
[25] = systemic / pathology microscopic / kidney / vacuolization cytoplasmic + systemic / pathology microscopic / liver / vacuolization cytoplasmic…
[26] = systemic / in life observation / body weight / body weight + systemic / in life observation / mortality / mortality
[27] = group: offspring, developmental / developmental landmark / nipple development / nipple development + systemic / in life observation / body weight / offspring…
[28] = group: offspring, systemic / pathology microscopic / stomach / hyperkeratosis + systemic / pathology microscopic / stomach / hyperplasia
[29] = group: parental, systemic / in life observation / body weight / body weight + systemic / in life observation / body weight / dam weight + systemic / in life …
[30] = group: parental, systemic / organ weight / liver / relative to body weight + systemic / pathology microscopic / stomach / hyperkeratosis + systemic / …
[31] = group: reproductive, reproductive / offspring survival early / live fetuses / live fetuses
[32] = systemic / organ weight / liver / relative to body weight
[33] = systemic / pathology microscopic / nose / atrophy + systemic / pathology microscopic / nose / metaplasia
[34] = group: developmental, developmental / developmental malformation / bone / unossified + systemic / in life observation / body weight / fetal weight
[35] = group: maternal, systemic / in life observation / body weight / body weight + systemic / in life observation / body weight / body weight gain + systemic / in…
[36] = systemic / clinical chemistry / cytochrome p450, nos / cytochrome p450, nos
[37] = systemic / organ weight / liver / absolute + systemic / organ weight / liver / relative to body weight + systemic / pathology microscopic / …

**Q.** With `NC(=O)n1c(O)c(C(=O)c2ccc(Cl)s2)c2cc(Cl)ccc21` as the compound, how does the LOAEL (primate [1]; [16]) read?
**A.** > 30 mg/kg/day

**Q.** What about the NOAEL (primate [1]; [16]) of the same compound?
**A.** ≥ 30 mg/kg/day

**Q.** What about the LEL (primate [1]; [17]) of the same compound?
**A.** 1 mg/kg/day

**Q.** And the NEL (primate [1]; [17])?
**A.** < 1 mg/kg/day

**Q.** What about the LOAEL (rat [2]; [18]) of the same compound?
**A.** > 30 mg/kg/day

**Q.** What about the NEL (rat [2]; [18]) of the same compound?
**A.** 3 mg/kg/day

**Q.** And the NOAEL (rat [2]; [18])?
**A.** ≥ 30 mg/kg/day

**Q.** What about the LEL (rat [2]; systemic / clinical chemistry / protein / protein + systemic / hematology / erythrocyte (rbc) count differential / erythrocyte (rbc) + …) of the same compound?
**A.** 10 mg/kg/day

**Q.** What about the LEL (primate [3]) of the same compound?
**A.** 3 mg/kg/day

**Q.** And the LOAEL (primate [3])?
**A.** > 10 mg/kg/day

**Q.** And the NEL (primate [3])?
**A.** 1 mg/kg/day

**Q.** And the NOAEL (primate [3])?
**A.** ≥ 10 mg/kg/day

**Q.** What about the LOAEL (rat [4]; [19]) of the same compound?
**A.** > 100 mg/kg/day

**Q.** And the NOAEL (rat [4]; [19])?
**A.** ≥ 100 mg/kg/day

**Q.** What about the LEL (rat [4]; [20]) of the same compound?
**A.** 10 mg/kg/day

**Q.** What about the NEL (rat [4]; [20]) of the same compound?
**A.** < 10 mg/kg/day

**Q.** What does the source list for `Cc1ccccc1N.Cl` [2-Methylaniline hydrochloride]?
**A.** LOAEL (rat [5]; [21]): 300 mg/kg/day; NOAEL (rat [5]; [21]): < 300 mg/kg/day; LEL (rat [5]; [22]): 300 mg/kg/day; NEL (rat [5]; [22]): < 300 mg/kg/day

**Q.** What does the source list for `CC(=O)OC(C)c1ccccc1` (stereo not drawn) [Benzenemethanol, alpha-methyl-, acetate]?
**A.** LEL (rat [6]; [23]): 1000 mg/kg/day; NEL (rat [6]; [23]): < 1000 mg/kg/day; LOAEL (rat [6]; systemic / in life observation / body weight / body weight + systemic / pathology microscopic / kidney / nephropathy): 2000 mg/kg/day; NOAEL (rat [6]; systemic / in life observation / body weight / body weight + systemic / pathology microscopic / kidney / nephropathy + systemic / in life …): 1000 mg/kg/day; LOAEL (mouse [7]; [24]): 1000 mg/kg/day; NOAEL (mouse [7]; [24]): 500 mg/kg/day; LEL (mouse [7]; [25]): 500 mg/kg/day; NEL (mouse [7]; [25]): < 500 mg/kg/day; LOAEL (rat [8]; systemic / in life observation / body weight / body weight): 4000 mg/kg/day; NEL (rat [8]; [26]): 2000 mg/kg/day; NOAEL (rat [8]; [26]): 2000 mg/kg/day; LEL (rat [8]; systemic / in life observation / body weight / body weight + systemic / in life observation / mortality / mortality + systemic / pathology …): 4000 mg/kg/day; LEL (mouse [9]): 2000 mg/kg/day; LOAEL (mouse [9]): 2000 mg/kg/day; NEL (mouse [9]): 1000 mg/kg/day; NOAEL (mouse [9]): 1000 mg/kg/day

**Q.** `C/C=C/c1ccc(O)c(OC)c1` [Isoeugenol] was tested. Which LOAEL (rat [10]; [27]) did it give?
**A.** > 700 mg/kg/day

**Q.** What about the NOAEL (rat [10]; [27]) of the same compound?
**A.** ≥ 700 mg/kg/day

**Q.** And the LEL (rat [10]; [28])?
**A.** 70 mg/kg/day

**Q.** And the NEL (rat [10]; [28])?
**A.** < 70 mg/kg/day

**Q.** And the LOAEL (rat [10]; [29])?
**A.** > 700 mg/kg/day

**Q.** What about the NOAEL (rat [10]; [29]) of the same compound?
**A.** ≥ 700 mg/kg/day

**Q.** What about the LEL (rat [10]; [30]) of the same compound?
**A.** 70 mg/kg/day

**Q.** And the NEL (rat [10]; [30])?
**A.** < 70 mg/kg/day

**Q.** What about the LEL (rat [10]; [31]) of the same compound?
**A.** 700 mg/kg/day

**Q.** And the LOAEL (rat [10]; [31])?
**A.** > 700 mg/kg/day

**Q.** What about the NEL (rat [10]; [31]) of the same compound?
**A.** 230 mg/kg/day

**Q.** What about the NOAEL (rat [10]; [31]) of the same compound?
**A.** ≥ 700 mg/kg/day

**Q.** What about the LEL (mouse [11]; [32]) of the same compound?
**A.** 37.5 mg/kg/day

**Q.** What about the NEL (mouse [11]; [32]) of the same compound?
**A.** < 37.5 mg/kg/day

**Q.** And the LOAEL (mouse [11]; systemic / pathology microscopic / nose / atrophy + systemic / in life observation / body weight / body weight + systemic / in life …)?
**A.** 600 mg/kg/day

**Q.** And the NOAEL (mouse [11]; systemic / pathology microscopic / nose / atrophy + systemic / organ weight / lung / absolute)?
**A.** 300 mg/kg/day

**Q.** And the LEL (rat [12]; [33])?
**A.** 75 mg/kg/day

**Q.** What about the LOAEL (rat [12]; [33]) of the same compound?
**A.** 150 mg/kg/day

**Q.** And the NEL (rat [12]; [33])?
**A.** < 75 mg/kg/day

**Q.** What about the NOAEL (rat [12]; systemic / pathology microscopic / nose / atrophy + systemic / pathology microscopic / nose / metaplasia + systemic / pathology microscopic…) of the same compound?
**A.** 75 mg/kg/day

**Q.** And the LEL (rat [13]; [34])?
**A.** 1000 mg/kg/day

**Q.** And the LOAEL (rat [13]; [34])?
**A.** 1000 mg/kg/day

**Q.** And the NEL (rat [13]; [34])?
**A.** 500 mg/kg/day

**Q.** And the NOAEL (rat [13]; [34])?
**A.** 500 mg/kg/day

**Q.** And the LEL (rat [13]; [35])?
**A.** 250 mg/kg/day

**Q.** And the LOAEL (rat [13]; [35])?
**A.** 250 mg/kg/day

**Q.** What about the NEL (rat [13]; [35]) of the same compound?
**A.** < 250 mg/kg/day

**Q.** What about the NOAEL (rat [13]; [35]) of the same compound?
**A.** < 250 mg/kg/day

**Q.** And the LEL (rat [14]; [36])?
**A.** 75 mg/kg/day

**Q.** And the NEL (rat [14]; [36])?
**A.** 37.5 mg/kg/day

**Q.** And the LOAEL (rat [14]; [37])?
**A.** 600 mg/kg/day

**Q.** And the NOAEL (rat [14]; [37])?
**A.** 300 mg/kg/day

**Q.** What about the LEL (mouse [15]) of the same compound?
**A.** 75 mg/kg/day

**Q.** What about the LOAEL (mouse [15]) of the same compound?
**A.** 75 mg/kg/day

**Q.** And the NEL (mouse [15])?
**A.** < 75 mg/kg/day

**Q.** What about the NOAEL (mouse [15]) of the same compound?
**A.** < 75 mg/kg/day
